Assay results reported in patent US8278086B2, “Enhancement of vanadium-containing phosphatase inhibitors” (Roche Diagnostics Operations, Inc., priority 2007, dated 2012).

What was measured:
[1] = tested on: phosphatases in COS7 cell lysate; test: Inhibition of phosphatases in COS7 cell lysate; type: biochemical; settings: 1 mM orthovanadate (alone or with 27 mM mannitol), FIG. 5
Method: COS7 cells were collected, washed 3 times with 50 mM Hepes, 50 mM NaCl pH 7.0 and lysed using 5 ml M-Per (Pierce) for 10 min. After centrifugation the lysate was collected as the supernatant.
(§1) Subsequently, an aliquot of 10 μl was transferred from each mixture to a microwell plate. 5 μl of a solution of a test peptide (R-R-L-I-E-D-A-E-pY-A-A-R-G (SEQ ID NO: 1); 1 mM in water) and 10 μl of a buffer containing 0.1 mM CaCl2, 50 mM Tris pH 7.0 were added to each well and incubated for 30 min at 37° C. Free phosphate resulting from the enzymatic hydrolysis was then detected via addition of 100 μl of a 1M HCl solution additionally containing 0.034% [w/v] malachite green, 10 mM sodium molybdate and 3.4 [v/v] ethanol. The detection was performed for 10 min at RT while constantly agitating the microwell plate. Relative concentrations of free phosphate were detected following the determination of the extinction (620 nm) of each reaction well.

[2] = tested on: phosphatases in insect cell (SF9) lysate; test: Inhibition of phosphatases in insect cell lysate; type: biochemical; settings: 1 mM orthovanadate (alone or with 27 mM mannitol), FIG. 4
Method: 270 mg insect cells (SF9) were collected, washed 3 times with 50 mM Hepes, 50 mM NaCl pH 7.0 and lysed using 2.5 ml M-Per (Pierce) for 10 min. After centrifugation the lysate was collected as the supernatant.
as §1, with “mixture into a well of” for “mixture to”, “a 1 M” for “a 1M”, “and 3.4%” for “and 3.4”

[3] = tested on: phosphatase; settings: in the presence of complex-forming reagents like EDTA; cited from earlier work

Structure (SMILES): [O]=[V]([O-])([O-])[O-] [Na3VO4, orthovanadate]
- phosphatase activity (residual) [1]: 52%
- phosphatase activity (residual) [2]: 14%
- factor by which the phosphatase inhibiting effect is reduced [3]: about 1,000
